Reference: article PMC4666608, “Metabolic Profiling of Chicken Embryos Exposed to Perfluorooctanoic Acid (PFOA) and Agonists to Peroxisome Proliferator-Activated Receptors” (PLoS ONE, 2015)
Several values for one entry are separate records, joined by “and”; a condition that tells them apart may be missing. Equal values may be shown once.

Legend:
chicken embryos [1] = test: Plasma lipids (total, LDL, HDL cholesterol, triacylglycerols), photometric; settings: for HDL-C in plasma, mean ± SD / LDL-C in plasma, mean ± SD / LDL/HDL in plasma, mean ± SD / Total cholesterol in plasma, mean ± SD / Triacylglycerols in plasma, mean ± SD: E12, 150 μg/egg; for LDL/HDL: plasma
Experimental: The experimental procedures in this study were approved by the Uppsala Ethical Committee for Research on Animals (Permit number C 211/12). Fertilized chicken eggs (Gallus gallus domesticus) were obtained from a local breeder (Ova Production AB, Vittinge, Sweden). The egg weights were 60 ± 4 g (mean and standard deviation). The eggs were incubated at 37.5°C and 60% relative humidity with automatic turning every six hours. The day the eggs were placed in the incubator was defined as embryonic day zero (E0). Chicken embryos were exposed to test substances by air sac injection in eggs incubated for seven days (E7). At this stage, the extraembryonic allantoic blood vessel network has grown to cover the inner shell membrane beneath the air sac and the injected substance will come in direct contact with the vascular network. The exposures were performed as follows: Unfertilized eggs and poorly developing embryos were recognized by candling and were sorted out. Eggs with embryos of normal size were collected and randomly distributed into the different treatment groups. On E7, the blunt end of each egg was wiped with alcohol and a small hole was drilled through the shell above the air sac. The dissolved test substance (20 μl) was deposited onto the inner shell membrane in the air sac and the hole was sealed with melted paraffin wax. Following injection, eggs were held horizontally and rotated for a few seconds to allow dispersal over the inner shell membrane in the air sac. Each egg was marked with a number specifying the treatment group and was placed at a random location in the incubator.
The doses were 150 μg/egg (approximately 2.5 mg/kg egg) for GW7647 and rosiglitazone and 50, 250 or 1000 μg/egg for PFOA (approximately 0.83, 4.2 and 18 mg/kg egg, respectively). Controls were injected with 20 μL vehicle only (DMSO). Due to the large number of embryos required, the experiment was divided into four replicate experiments (replicate A-D) performed the same way but on separate occasions. The number of exposed embryos was 10–15 for each treatment group and replicate.
A subset of randomly chosen embryos from each group (except the 1000 μg/egg group) was sampled for metabolomic analysis of allantoic fluid and blood plasma. Samples of allantoic fluid and blood were collected before decapitation and dissection of the embryo as described below. The egg shell was removed above the air cell without disrupting the inner shell membrane. Allantoic fluid was collected by gently inserting a needle through the inner shell membrane and into the allantoic sac and then aspiring the fluid with a syringe. The samples were placed in microtubes on ice during sampling and then stored at -70°C until processed for metabolomic analysis. Blood was collected from the allantoic artery, just proximal to its first branch. The artery was gently cleaned from membranes, lifted with a small spoon and then punctured with a needle. Blood flowing into the spoon was immediately collected with heparinized capillaries. Blood was stored in heparinized microtubes on ice during sampling and was then centrifuged at a speed of 1300g for 10 min at 4°C. Plasma was collected and stored at -70°C. The embryos were killed by decapitation and dissected immediately following blood sampling.
Total cholesterol, low-density lipoprotein (LDL) cholesterol, high-density lipoprotein (HDL) cholesterol, and triacylglycerols in plasma were analyzed with an Architect c8000 (Abbott Diagnostics, Abbott Park, IL, USA), using a photometric method, at the department of Clinical Chemistry and Pharmacology, Uppsala University Hospital, Sweden. The laboratory is accredited according to EN/ISO 15189 medical laboratory requirements. A total of 80 samples were analyzed; control: 7 females and 8 males; GW7647: 7 females and 8 males; rosiglitazone: 5 females and 12 males; 50 μg PFOA/egg: 11 females and 6 males; 250 μg PFOA/egg: 10 females and 6 males.

chicken embryos [2] = test: Embryo mortality after in ovo exposure (air sac injection E7, examined E12); type: in vivo, Gallus gallus domesticus; settings: in ovo injection E7, sampled E12; 150 μg/egg
Experimental: Controls were injected with 20 μL vehicle only (DMSO).
Embryos were dissected and sampled on E12. The treatment group was concealed to the one carrying out embryo dissections and the order of dissection of the embryos was randomized. The embryos were examined for viability and gross morphology, e.g. appearance of the liver. The sex was determined by the presence of a pair of testes or an ovary.
Mortality rates were analyzed with Fisher’s exact test.

SMILES | HDL-C in plasma, mean ± SD (chicken embryos [1]) | LDL-C in plasma, mean ± SD (chicken embryos [1]) | LDL/HDL in plasma, mean ± SD (chicken embryos [1]) | Total cholesterol in plasma, mean ± SD (chicken embryos [1]) | Triacylglycerols in plasma, mean ± SD (chicken embryos [1]) | Mortality rate (chicken embryos [2]) | Mortality rate, Ratio (chicken embryos [2]) | HDL-Cholesterol in plasma (chicken embryos [1]; group mean) | LDL-Cholesterol in plasma (chicken embryos [1]; group mean) | Total Cholesterol in plasma (chicken embryos [1]; group mean) | Triacylglycerols in plasma (chicken embryos [1]; group mean) | LDL/HDL (chicken embryos [1]; group mean) | HDL-Cholesterol in plasma (chicken embryos [1]; individual embryos) | LDL-Cholesterol in plasma (chicken embryos [1]; individual embryos) | Total Cholesterol in plasma (chicken embryos [1]; individual embryos) | Triacylglycerols in plasma (chicken embryos [1]; individual embryos) | LDL/HDL (chicken embryos [1]; individual embryos)
CC(C)(Sc1ccc(CCN(CCCCC2CCCCC2)C(=O)NC2CCCCC2)cc1)C(=O)O [GW7647, reference compound] | 0.63 ± 0.05 mM | 1.5 ± 0.2 mM | 2.4 ± 0.4 | 5.5 ± 0.3 mM | 4.9 ± 0.7 mM | 0% | 0/40 | – | – | – | – | – | – | – | – | – | –
CN(CCOc1ccc(CC2SC(=O)NC2=O)cc1)c1ccccn1 (stereo not drawn) [Rosiglitazone, rosiglitazone, reference compound] | 0.60 ± 0.06 mM | 1.5 ± 0.2 mM | 2.5 ± 0.4 | 5.2 ± 0.4 mM | 5.4 ± 0.8 mM | 5% | 2/40 | 0.60 mM | 1.5 mM | 5.2 mM | 5.4 mM | 2.5 | 0.65 mM and 0.59 mM and 0.53 mM and 0.58 mM and 0.55 mM and 0.71 mM and 0.6 mM and 0.7 mM and 0.57 mM and 0.51 mM and 0.69 mM and 0.52 mM and 0.61 mM | 2.00 mM and 1.70 mM and 1.20 mM and 1.50 mM and 1.10 mM and 1.60 mM and 1.40 mM and 1.00 mM and 1.80 mM | 5.8 mM and 4.8 mM and 4.1 mM and 5.4 mM and 4.9 mM and 5.5 mM and 5.9 mM and 5.2 mM and 5.3 mM and 5 mM and 5.6 mM | 4.5 mM and 4.3 mM and 4.7 mM and 6 mM and 5 mM and 5.3 mM and 5.6 mM and 4.6 mM and 7.1 mM and 6.3 mM and 6.4 mM and 5.5 mM | 3.1 and 2.9 and 2.3 and 2.6 and 2.7 and 2.1 and 2.8 and 1.7 and 2.5 and 2.0 and 2.2 and 3.0 and 3.5
